Measured values reported in patent US9000159B2 (Glenmark Pharmaceuticals, S.A., priority 2009, dated 2015).

Target: T1, Human TRPA1 (Homo sapiens, UniProt O75762)
T1 construct: expressed in transfected cells; host or cells: CHO cells
Test: 45Calcium uptake assay: inhibition of AITC induced cellular uptake of radioactive calcium
Assay type: cell-based
Conditions: AITC (30 μM) induced 45Ca uptake, Human TRPA1 expressing CHO cells; for inhibition at 1 µM: 1.0 μM test compound, read-out: Percentage inhibition at 1.0 μM; for inhibition at 10 µM: 10.0 μM test compound, read-out: Percentage inhibition at 10.0 μM; for IC50: read-out: Human IC50 value (range)
Description: The illustrative examples of the present invention are screened for TRPA1 activity according to a modified procedure described in (a) Tóth, A. et al., Life Sciences, 2003, 73, 487-498. (b) McNamara C, R. et al., Proc. Natl. Acad. Sci. U.S.A., 2007, 104, 13525-13530. The screening of the compounds can be carried out by other methods and procedures known to persons skilled in the art.
Screening for TRPA1 Antagonist Using the ^45Calcium Uptake Assay
The inhibition of TRPA1 receptor activation was measured as inhibition of allyl isothiocyanate (AITC) induced cellular uptake of radioactive calcium. Test compounds were dissolved in DMSO to prepare 10 mM stock solution and then diluted using plain medium with 0.1% BSA and 1.8 mM CaCl2 to get desired concentration. Final concentration of DMSO in the reaction was 0.5% (v/v). Human TRPA1 expressing CHO cells were grown in F-12 DMEM medium with 10% FBS, 1% penicillin-streptomycin solution, 400 μg/ml of G-418. Cells were seeded 24 h prior to the assay in 96 well plates so as to get ˜50,000 cells per well on the day of experiment. Cells were treated with test compounds for 10 min followed by addition of AITC at a final concentration of 30 μM and 5 μCi/ml ^45Ca^+2 for 3 min. Cells were washed and lysed using buffer containing 1% Triton X-100, 0.1% deoxycholate and 0.1% SDS. Radioactivity in the lysate was measured in Packard Top count after addition of liquid scintillant. Concentration response curves were plotted as a % of maximal response obtained in the absence of test antagonist. IC50 value was calculated from concentration response curve by nonlinear regression analysis using GraphPad PRISM software.

T1 sequence (O75762 whole entry): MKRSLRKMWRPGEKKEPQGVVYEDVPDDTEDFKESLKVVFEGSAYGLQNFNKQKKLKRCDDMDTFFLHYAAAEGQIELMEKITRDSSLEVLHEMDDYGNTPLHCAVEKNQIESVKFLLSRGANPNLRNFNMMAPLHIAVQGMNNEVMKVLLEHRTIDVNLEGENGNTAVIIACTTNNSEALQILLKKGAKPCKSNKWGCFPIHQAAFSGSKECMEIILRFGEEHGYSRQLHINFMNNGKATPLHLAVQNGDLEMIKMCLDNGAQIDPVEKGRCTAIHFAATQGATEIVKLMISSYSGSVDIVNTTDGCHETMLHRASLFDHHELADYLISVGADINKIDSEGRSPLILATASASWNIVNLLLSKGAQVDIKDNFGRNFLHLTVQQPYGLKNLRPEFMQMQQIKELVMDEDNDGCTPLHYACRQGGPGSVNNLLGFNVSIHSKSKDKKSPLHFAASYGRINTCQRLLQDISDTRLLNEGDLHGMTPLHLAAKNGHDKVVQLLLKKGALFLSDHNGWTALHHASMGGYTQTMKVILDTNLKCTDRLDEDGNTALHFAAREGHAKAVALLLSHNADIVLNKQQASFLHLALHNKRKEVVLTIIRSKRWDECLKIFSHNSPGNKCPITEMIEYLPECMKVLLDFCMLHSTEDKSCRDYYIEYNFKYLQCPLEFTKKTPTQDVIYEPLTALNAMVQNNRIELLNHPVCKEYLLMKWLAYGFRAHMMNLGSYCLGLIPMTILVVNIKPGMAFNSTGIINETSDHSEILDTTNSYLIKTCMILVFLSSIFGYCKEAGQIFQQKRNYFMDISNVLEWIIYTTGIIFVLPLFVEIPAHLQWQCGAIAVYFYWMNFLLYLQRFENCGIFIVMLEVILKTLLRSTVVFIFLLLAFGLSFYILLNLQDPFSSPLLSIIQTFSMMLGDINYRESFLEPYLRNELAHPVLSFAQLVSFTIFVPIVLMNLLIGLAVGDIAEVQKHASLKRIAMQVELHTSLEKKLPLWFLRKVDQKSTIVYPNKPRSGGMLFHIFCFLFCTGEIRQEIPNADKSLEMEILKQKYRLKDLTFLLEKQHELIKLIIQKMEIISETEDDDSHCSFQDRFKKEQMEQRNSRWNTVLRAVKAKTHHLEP

inhibition at 1 µM [%] | inhibition at 10 µM [%] | IC50 [nM] | Compound
11.2 | 16.2 |  | Cn1c(=O)c2c(ccn2CC(=O)Nc2nc(-c3cc(F)c(OCc4ccc(C(F)(F)F)cc4)c(F)c3)cs2)n(C)c1=O [Example 21, 2-(1,3-Dimethyl-2,4-dioxo-1,2,3,4-tetrahydro-5H-pyrrolo[3,2-d]pyrimidin-5-yl)-N-{4-[3,5-difluoro-4-[4-(trifluoromethyl)benzyloxy]phenyl)-1,3-thiazol-2-yl}acetamide]
81.4 | 99.4 | < 50 | Cc1cc2c(c(=O)n(C)c(=O)n2C)n1CC(=O)Nc1nc(-c2ccc(C(F)(F)F)c(F)c2)cs1 [Example 22, N-[4-(3-Fluoro-4-trifluoromethylphenyl)-1,3-thiazol-2-yl]-2-(1,3,6-trimethyl-2,4-dioxo-1,2,3,4-tetrahydro-5H-pyrrolo[3,2-d]pyrimidin-5-yl)acetamide]
87.4 | 92.2 | 50 to 100 | Cn1c(=O)c2c(ccn2CC(=O)Nc2nc(-c3ccc(OCC(F)(F)F)c(Br)c3)cs2)n(C)c1=O [Example 23, N-{4-[3-Bromo-4-(2,2,2-trifluoroethoxy)phenyl]-1,3-thiazol-2-yl}-2-(1,3-dimethyl-2,4-dioxo-1,2,3,4-tetrahydro-5H-pyrrolo[3,2-d]pyrimidin-5-yl)acetamide]
93.9 | 99.4 | < 50 | Cc1cc2c(c(=O)n(C)c(=O)n2C)n1CC(=O)Nc1nc(-c2cc(F)c(OCC(C)(C)C)c(F)c2)cs1 [Example 24, N1-{4-[3,5-Difluoro-4-(2,2-dimethylpropoxy)phenyl]-1,3-thiazol-2-yl}-2-(1,3,6-trimethyl-2,4-dioxo-1,2,3,4-tetrahydro-5H-pyrrolo[3,2-d]pyrimidin-5-yl)acetamide]
68.3 | 94.8 |  | Cc1cc2c(c(=O)n(C)c(=O)n2C)n1CC(=O)Nc1nc(-c2ccc(F)c(C(F)(F)F)c2F)cs1 [Example 25]
95.3 | 98.3 | < 50 | Cc1cc2c(c(=O)n(C)c(=O)n2C)n1CC(=O)Nc1nc(-c2cc(F)c(OCC(F)(F)F)c(F)c2)cs1 [Example 26, N-[4-(3,5-Difluoro-4-(2,2,2-trifluoroethoxy)phenyl)-1,3-thiazol-2-yl]-2-(1,3,6-trimethyl-2,4-dioxo-1,2,3,4-tetrahydro-5H-pyrrolo[3,2-d]pyrimidin-5-yl)acetamide]
87.6 | 99.2 | < 50 | Cc1cc2c(c(=O)n(C)c(=O)n2C)n1CC(=O)Nc1nc(-c2cc(F)c(OCC3CCC3)c(F)c2)cs1 [Example 27, N-[4-(4-Cyclobutylmethoxy-3,5-difluorophenyl)-1,3-thiazol-2-yl]-2-(1,3,6-trimethyl-2,4-dioxo-1,2,3,4-tetrahydro-5H-pyrrolo[3,2-d]pyrimidin-5-yl)acetamide]
99.5 | 99.7 | < 50 | Cc1cc2c(c(=O)n(C)c(=O)n2C)n1CC(=O)Nc1nc(-c2cc(F)c(OCC(C)(C)C)c(Cl)c2)cs1 [Example 28]
95.6 | 97.1 | < 50 | Cc1cc2c(c(=O)n(C)c(=O)n2C)n1CC(=O)Nc1nc(-c2cc(Cl)c(OCC(C)(C)C)c(Cl)c2)cs1 [Example 29]
93.6 | 100 | < 50 | Cc1cc2c(c(=O)n(C)c(=O)n2C)n1CC(=O)Nc1nc(-c2cc(F)c(OCC(F)(F)F)c(Cl)c2)cs1 [Example 30]
87.4 | 95.3 | 50 to 100 | Cc1cc2c(c(=O)n(C)c(=O)n2C)n1CC(=O)Nc1nc(-c2ccc(OCC(C)(C)C)c(F)c2)cs1 [Example 31, N-{4-[4-(2,2-Dimethylpropoxy)-3-fluorophenyl]-1,3-thiazol-2-yl}-2-(1,3,6-trimethyl-2,4-dioxo-1,2,3,4-tetrahydro-5H-pyrrolo[3,2-d]pyrimidin-5-yl)acetamide]
92.8 | 96.3 | < 50 | Cc1cc2c(c(=O)n(C)c(=O)n2C)n1CC(=O)Nc1nc(-c2ccc(OCC(C)(C)C)c(Cl)c2)cs1 [Example 32, N-{4-[3-Chloro-4-(2,2-dimethylpropoxy)phenyl]-1,3-thiazol-2-yl}-2-(1,3,6-trimethyl-2,4-dioxo-1,2,3,4-tetrahydro-5H-pyrrolo[3,2-d]pyrimidin-5-yl)acetamide]
0 | 28.3 |  | Cc1cc2c(c(=O)n(C)c(=O)n2C)n1CC(=O)Nc1cc(-c2ccc(Br)cc2)on1 [Example 33, N-[5-(4-bromophenyl)isoxazol-3-yl]-2-(1,3,6-trimethyl-2,4-dioxo-1,2,3,4-tetrahydro-5H-pyrrolo[3,2-d]pyrimidin-5-yl)acetamide]
88.8 | 97 | > 100 | Cc1cn(CC(=O)Nc2nc(-c3cc(F)c(OCC(C)(C)C)c(F)c3)cs2)c2c(=O)n(C)c(=O)n(C)c12 [Example 34, N-{4-[3,5-Difluoro-4-(2,2-dimethylpropoxy)phenyl]-1,3-thiazol-2-yl}-2-(1,3,7-trimethyl-2,4-dioxo-1,2,3,4-tetrahydro-5H-pyrrolo[3,2-d]pyrimidin-5-yl)acetamide]
64.7 | 96.8 |  | Cc1cn(CC(=O)Nc2nc(-c3ccc(C(F)(F)F)c(F)c3)cs2)c2c(=O)n(C)c(=O)n(C)c12 [Example 35, N-{4-[3-Fluoro-4-(trifluoromethyl)phenyl]-1,3-thiazol-2-yl}-2-(1,3,7-trimethyl-2,4-dioxo-1,2,3,4-tetrahydro-5H-pyrrolo[3,2-d]pyrimidin-5-yl)acetamide]
35.6 | 70.1 |  | Cn1c(=O)c2c(c(Br)cn2CC(=O)Nc2nc(-c3cc(F)c(OCC(C)(C)C)c(F)c3)cs2)n(C)c1=O [Example 36, 2-(7-Bromo-1,3-dimethyl-2,4-dioxo-1,2,3,4-tetrahydro-5H-pyrrolo[3,2-d]pyrimidin-5-yl)-N-{4-[3,5-difluoro-4-(2,2-dimethylpropoxy)phenyl]-1,3-thiazol-2-yl}acetamide]
52.9 | 95.4 |  | Cn1c(=O)c2c(c(Br)cn2CC(=O)Nc2nc(-c3ccc(C(F)(F)F)c(F)c3)cs2)n(C)c1=O [Example 37, 2-(7-Bromo-1,3-dimethyl-2,4-dioxo-1,2,3,4-tetrahydro-5H-pyrrolo[3,2-d]pyrimidin-5-yl)-N-{4-[3-fluoro-4-(trifluoromethyl)phenyl]-1,3-thiazol-2-yl}acetamide]
57 | 97.8 |  | CN(C)Cc1cn(CC(=O)Nc2nc(-c3ccc(C(F)(F)F)c(F)c3)cs2)c2c(=O)n(C)c(=O)n(C)c12 [Example 38, N-{4-[3-Fluoro-4-(trifluoromethyl)phenyl]-1,3-thiazol-2-yl}-2-{7-[(dimethylamino)methyl]-1,3-dimethyl-2,4-dioxo-1,2,3,4-tetrahydro-5H-pyrrolo[3,2-d]pyrimidin-5-yl}acetamide]
4.89 | 21.1 |  | CN(C)Cc1cn(CC(=O)Nc2nc(-c3cc(F)c(OCC(C)(C)C)c(F)c3)cs2)c2c(=O)n(C)c(=O)n(C)c12 [Example 39]
48.5 | 86.2 |  | CCN(CC)Cc1cn(CC(=O)Nc2nc(-c3ccc(C(F)(F)F)c(F)c3)cs2)c2c(=O)n(C)c(=O)n(C)c12 [Example 40, N-{4-[3-Fluoro-4-(trifluoromethyl)phenyl]-1,3-thiazol-2-yl}-2-{7-[(diethylamino)methyl]-1,3-dimethyl-2,4-dioxo-1,2,3,4-tetrahydro-5H-pyrrolo[3,2-d]pyrimidin-5-yl}acetamide]
38 | 86.5 |  | Cn1c(=O)c2c(CC(=O)Nc3nc(-c4ccc(C(F)(F)F)c(F)c4)cs3)cn(C)c2n(C)c1=O [Example 41, N-{4-[3-Fluoro-4-(trifluoromethyl)phenyl]-1,3-thiazol-2-yl}-2-(1,3,7-trimethyl-2,4-dioxo-2,3,4,7-tetrahydro-1H-pyrrolo[2,3-d]pyrimidin-5-yl)acetamide]
41.1 | 63.1 |  | Cn1c(=O)c2c(CC(=O)Nc3nc(-c4cc(F)c(OCC(C)(C)C)c(F)c4)cs3)cn(C)c2n(C)c1=O [Example 42, N-[4-(3,5-Difluoro-4-(2,2-dimethylpropoxy)phenyl)-1,3-thiazol-2-yl]-2-(1,3,7-trimethyl-2,4-dioxo-2,3,4,7-tetrahydro-1H-pyrrolo[2,3-d]pyrimidin-5-yl)acetamide]
30.1 | 41.6 |  | Cn1c(=O)c2c(CC(=O)Nc3nc(-c4ccc(F)c(C(F)(F)F)c4F)cs3)cn(C)c2n(C)c1=O [Example 43, N-{4-[2,4-Difluoro-3-(trifluoromethyl)phenyl]-1,3-thiazol-2-yl}-2-(1,3,7-trimethyl-2,4-dioxo-2,3,4,7-tetrahydro-1H-pyrrolo[2,3-d]pyrimidin-5-yl)acetamide]
